# Test system: HEK293T cells
# Test: Nucleic acid delivery test (plasmid DNA with GFP gene, quantitative PCR)
# Assay type: cell-based
# Settings: buffered saline HBS, plasmid DNA 4.7 kb with GFP gene, after 48 hours
# Experimental: Dimethylformamide solutions (10 mmol/L, 1 μL) of the aromatic compounds shown in Tables 1 and 2 were each dissolved in the buffered salines (25 μL) shown in Tables 1 and 2. However, in Comparative Example 2, no aromatic compound was used, and only dimethylformamide was used. The two resulting solutions were mixed and allowed to stand at room temperature for 30 minutes to complex the aromatic compound with the plasmid DNA. Thereafter, 450 μL of the buffered saline used for the complexification and 500 μL of Dulbecco's modified Eagle medium (DMEM, Wako) containing 10% fetal bovine serum were added, and the resulting complex was added to HEK293T cells (mammalian cells). After 48 hours, the amount of nucleic acid was measured by quantitative PCR.
# In Tables 1 to 3, as for the buffered salines, “MEM” means Eagle's minimum essential medium, “TBS” means Tris-buffered saline, “HBS” means HEPES-buffered saline, and “MBS” means MES-buffered saline.
row,SMILES,Amount of nucleic acid relative comparison with Example 1
1,NCCc1ccc(-c2cc3c(-c4ccc(CCN)cc4)cc4c(-c5ccc(CCN)cc5)cc5c(-c6ccc(CCN)cc6)cc6c(-c7ccc(CCN)cc7)cc2c2c6c5c4c32)cc1 [KTU192],0.6727
2,NCCOc1ccc(-c2cc3c(-c4ccc(OCCN)cc4)cc4c(-c5ccc(OCCN)cc5)cc5c(-c6ccc(OCCN)cc6)cc6c(-c7ccc(OCCN)cc7)cc2c2c6c5c4c32)cc1 [KTU204],0.6309
3,c1cc(N2CCNCC2)ccc1-c1cc2c(-c3ccc(N4CCNCC4)cc3)cc3c(-c4ccc(N5CCNCC5)cc4)cc4c(-c5ccc(N6CCNCC6)cc5)cc5c(-c6ccc(N7CCNCC7)cc6)cc1c1c5c4c3c21 [KTU205],1.112

# Source: patent publication US20250152718A1, “NUCLEIC ACID DELIVERY MATERIAL” (National University Corporation Tokai National Higher …, priority 2022, published 2025)
